According to patent US7067714B1 (priority 1999, dated 2006):

Experiments:
N-type Ca channel = assay type: cell-based, mouse

NC1=N[C@H](O)[C@H]2[C@H]3O[C@]4(O)O[C@@H]([C@@H](O)[C@@]2(N1)[C@@H]4O)[C@]3(O)CO [tetrodotoxin]
increase in atrial muscle contractile force by nerve stimulus (isolated mouse atrium): completely inhibited

ω-conotoxin GVIA
influx of Ca2+ inhibited by ω-conotoxin GVIA (N-type Ca channel): not observed
